The subject of data set [1] is SkBr3 (Her2 overexpressing breast cancer cells). The following applies: previously published values; cited from earlier work.
In the next data set the test system is cancer cell lines. The data set is described as follows: Anti-proliferative activity, statements covering several cancer cell lines. Type of data set: cell-based. The following applies: SkBr3 and MCF-7, 1 μM. The protocol:
Upon completion of synthesis of library of compounds in Examples 23 and 24, the compounds were evaluated for anti-proliferative activity against SkBr3 (Her2 overexpressing breast cancer cells), MCF-7 (estrogen receptor positive breast cancer cells), HCT-116 (colon cancer cells characterized by wild-type p53), PL45 (pancreatic cancer cells), LNCaP (androgen sensitive prostate cancer cells) and PC-3 (androgen independent prostate cancer cells) cell lines. […] The monosubstituted benzamide variants improved activity.
(§1) Cells were maintained in a 1:1 mixture of Advanced DMEM/F12 (Gibco) supplemented with non-essential amino acids, L-glutamine (2 mM), streptomycin (500 ng/mL), penicillin (100 units/mL), and 10% FBS. Cells were grown to confluence in a humidified atmosphere (37° C., 5% CO2), seeded (2000/well, 100 μl) in 96-well plates, and allowed to attach overnight. Compound or GDA at varying concentrations in DMSO (1% DMSO final concentration) was added, and cells were returned to the incubator for 72 hours. At 72 hours, the number of viable cells was determined using an MTS/PMS cell proliferation kit (Promega) per the manufacturer's instructions. Cells incubated in 1% DMSO were used at 100% proliferation, and values were adjusted accordingly. IC50 values were calculated from separate experiments performed in triplicate using GraphPad Prism.
as §1, with “μg/mL),” for “ng/mL),”, “μL)” for “μl)”

The subject of data set [2] is MCF-7 (estrogen receptor positive breast cancer cells). The settings on record: previously published values; cited from earlier work.
In the next data set the test system is primary cortical neurons. The data set is described as follows: Toxicity of drug alone in neuronal cells (Live-Dead assay). Type of data set: cell-based. From the text: More specifically, primary cortical neurons were recovered from embryonic day 18 rat brains as described previously (Michaelis et al., Immunological Localization And Kinetic Characterization Of A Na+/Ca2+Exchanger In Neuronal And Nonneuronal Cells, Brain Res. 661 104-116 (1994)). Briefly, about 10 to 16 brains were removed from fetuses delivered by cesarean section, and the cortices dissected out. The neurons were isolated and suspended in DMEM/F12 supplemented with 10% FBS and plated on sterile dishes or cover slips coated with 10 μg/ml poly-D-lysine and 5 μg/ml mouse laminin. After 24 hours, the serum-containing medium was removed, and neurons were maintained in Neurobasal medium (Gibco) with 2% B-27 supplements (Gibco). Cells were maintained in culture at 37° C. in 5% CO2 and 97% humidity for 7 to 8 eight days in vitro (DIV) before use. […] Stock solutions of Aβ were prepared in sterile water at a concentration of 1.3 mM and stored at −20° C. Aliquots of the stock solutions were diluted to 1 mM in sterile 50 mM Tris-HCl, pH 7.4, and incubated at 37° C. for 24 hours to promote oligomerization of the peptides prior to treatment of the neurons. The effects of KU-1/A4, GA, Aβ, or the indicated combinations on neuronal viability were determined by monitoring cell survival using the Live-Dead assay as previously described. […] Digital images from 6 fields per dish were captured, and the number of viable (green) and dead (red) cells counted. All experiments were conducted with duplicate dishes from at least two neuronal preparations for each treatment, with about 1,000 cells analyzed/treatment condition. The data are expressed as the fraction of viable cells calculated from the total number of neurons counted under each treatment condition. The significance of differences between cultures exposed to various treatment conditions was determined using Student's t-test.

For data set [3], the system named is HCT-116 (colon cancer cells characterized by wild-type p53). Put plainly: Anti-proliferation activity against HCT-116 cells. The settings on record: Homo sapiens, Table 5, heterocyclic analogues, n = 3. Type of data set: cell-based.
For data set [4], the system named is LNCaP (androgen sensitive prostate cancer cells). Put plainly: Anti-proliferation activity against LNCaP cells. Type of data set: cell-based. The settings on record: Homo sapiens, LNCaP; Table 5, heterocyclic analogues; n = 3; read-out: IC50 LNCaP. In a few lines:
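Cells seeded at 2000/well in Advanced DMEM/F12 with 10% FBS and attached overnight, then given compound in 1% DMSO final for 72 h at 37 °C, 5% CO2. Viable cells by MTS/PMS read-out, normalised to 1% DMSO as 100% proliferation. IC50 from separate triplicate experiments.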

Data set [5] deals with SkBr3 (Her2 overexpressing breast cancer cells). The data set is described as follows: Anti-proliferation activity against SkBr3 cells (MTS/PMS). Type of data set: cell-based. In short, it runs like this:
(§2)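 Viability after 72 h compound treatment (1% DMSO final, 37° C., 5% CO2) measured by MTS/PMS; plating density 2000 cells/well with overnight attachment.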

Data set [6] has as its system PL45 (pancreatic cancer cells). The data set is described as follows: Anti-proliferation activity against PL45 cells. Type of data set: cell-based. The settings on record: Table 5, heterocyclic analogues, n = 3.
The subject of data set [7] is PC-3 (androgen independent prostate cancer cells). Put plainly: Anti-proliferation activity against PC-3 cells. The format is cell-based. The following applies: Homo sapiens, PC-3; Table 5, heterocyclic analogues; n = 3; read-out: IC50 PC-3. In short, it runs like this: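 Antiproliferative activity was tested in PC-3 androgen-independent prostate cancer cells. Cells grown at 37° C. with 5% CO2 in Advanced DMEM/F12 (1:1) containing non-essential amino acids, 2 mM L-glutamine, streptomycin, penicillin and 10% FBS were plated at 2000/well in 96-well plates. Proliferation was normalized to 1% DMSO controls, and IC50 values from triplicate experiments were fitted in GraphPad Prism.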

Data set [8] relates to MCF-7 (estrogen receptor positive breast cancer cells). Put plainly: Anti-proliferation activity against MCF-7 cells (MTS/PMS). The format is cell-based. The settings on record: Homo sapiens, MCF7; Table 5, heterocyclic analogues; n = 3; read-out: IC50 MCF-7. In a few lines: as §2
The subject of data set [9] is Hsp90 client proteins Her2, Raf and Akt in MCF-7 breast cancer cells. The data set is described as follows: Hsp90 client protein degradation, Western blot in MCF-7 cells. The format is cell-based. As to the method:
FIG. 17 is a western blot analysis of Hsp90 client protein degradation assays against MCF-7 breast cancer cells. The concentration of compound 46 (in μM) is denoted above each lane. Geldamycin and DMSO were used as positive and negative controls, respectively.
In order to provide additional evidence that the growth inhibitory activity manifested by the 2-indoleamide compound 46 resulted from Hsp90 inhibition, 46 was evaluated by its ability to induce degradation of Hsp90-dependent client proteins. […] Since non-Hsp90-dependent substrates such as actin remained unchanged, the inhibition of cell growth was directly correlated to the degradation of Hsp90-dependent client proteins.
On the technique in general: In western blotting, separated proteins are transferred to a membrane and probed.

Data set [10] deals with Hsp90 client protein Her-2 in Skbr3 breast cancer cells. Put plainly: Degradation of Her-2, Western blot in Skbr3 cells. Type of data set: cell-based. The following applies: Homo sapiens, SK-BR-3, read-out: IC50 (concentration producing 50% degradation of Her-2), 24 hours, normalized against actin. As to the method:
After incubation, the cells were harvested, lysed, and equal amounts of the protein lysates loaded into SDS wells. After electrophoresis, the gel was probed with Her-2 and actin (control) antibodies.

In data set [11] the test system is Hsp90-dependent client proteins ErbB2 (Her2) and p53 in SKBr3 breast cancer cells. The following applies: previous studies; cited from earlier work.

The values that follow come from patent US9120774B2 (University of Kansas, priority 2009, dated 2015).

Read-outs that look alike come from different tables or passages of the source.

On to `COC1=C2C[C@@H](C)C[C@H](OC)[C@H](O)[C@@H](C)/C=C(\C)[C@H](OC(N)=O)[C@@H](OC)/C=C\C=C(/C)C(=O)NC(=CC1=O)C2=O` [GA, reference compound], for which the IC50 in [1] was 18 nM; in data set [2], 133 nM. Besides, in the data set with cancer cell lines, the cytotoxicity entry is on record as “almost complete cytotoxicity”. The “cytotoxicity in neuronal cells” value with primary cortical neurons (10 μM, 24 hours) is “significant cytotoxicity”; with primary cortical neurons (lower concentrations, 72 hours), “substantial cytotoxicity”.

For the molecule `CO[C@@H]1[C@@H](O)[C@@H](O)[C@H](Oc2ccc3cc(NC(=O)c4cc5ccccc5[nH]4)c(=O)oc3c2C)OC1(C)C` [compound 46, N-(7-((2R,3R,4S,5R)-3,4-Dihydroxy-5-methoxy-6,6-dimethyltetrahydro-2H-pyran-2-yloxy)-8-methyl-2-oxo-2H-chromen-3-yl)-1H-indole-2-carboxamide], the IC50 in data set [3] worked out at 170 ± 10 nM; in [4], 12200 nM; in [5] (Homo sapiens, SK-BR-3, Table 5, heterocyclic analogues, n = 3, read-out: IC50 SkBr3), 370 ± 60 nM; in data set [6], 470 ± 340 nM; in [7] it was 22300 ± 10100 nM; in data set [8], 570 ± 70 nM. Moreover, the “fold increased activity compared to novobiocin” value in data set [5] (SkBr3 cells) is listed as “greater than 500 fold”. Moreover, in data set [9], the “Hsp90 client proteins Her2, Raf and Akt” value is given as “degraded in a concentration-dependent manner”. Moreover, in [9], the Hsp90 level entry is on record as “induced”.

Consider `CO[C@@H]1[C@@H](OC(N)=O)[C@@H](O)[C@H](Oc2ccc3c(O)c(NC(=O)c4ccc(O)c(CC=C(C)C)c4)c(=O)oc3c2C)OC1(C)C` [novobiocin, reference compound], for which, in [10], the IC50 came to 700000 nM. In [11], the “concentration inducing degradation of ErbB2” value was “about 700 μM”.
